Source: patent publication US11530193B2, “Kinase inhibitors” (The University of Manchester, priority 2018, dated 2022)
Where two headings read alike, the source gives them in different places.

Legend:
CAMK1D [1] = molecular target: T1, CAMK1D (Homo sapiens (Human), UniProt Q8IU85); assay: Biochemical CaMK1D enzymatic activity assay (ADP-Glo Kinase Assay); settings: 3 nM CaMK1D, 1 μM Calmodulin, […] Autocamtide-2, 10 μM ATP, 25C, 2 hours
CAMK1D [2] = molecular target: T1, CAMK1D; assay: Tm-Shift assay (thermal melting, SYPRO Orange); format: binding; settings: for ΔTm at 10 µM: read-out: CAMK1d Tm-Shift; for CAMK1d Tm-Shift: compound 10 μM, protein 2 μM, ΔTm obs vs protein without ligand, triplicate
SYK = SYK (Homo sapiens (Human), UniProt P43405); assay: Tm-Shift assay (thermal melting, SYPRO Orange); format: binding;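 note: recombinant His-tagged protein made in Sf9 insect cells by baculovirus, in HEPES NaCl buffer, heated stepwise with fluorescence recorded at every temperature step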
[3] = compound 10 μM, protein 2 μM, ΔTm obs vs protein without ligand, triplicate

Compound | IC50 (CAMK1D [1]) [nM] | ΔTm at 10 µM (CAMK1D [2]) [°C] | SYK Tm-Shift (SYK) [°C] | CAMK1d Tm-Shift (CAMK1D [2]) [°C] | SYK Tm-Shift (SYK; [3]) [°C]
NC(=O)c1cnc(N2CCC[C@H](N)C2)nc1Nc1cc(-c2ccccc2)c2cn[nH]c2c1 [Example 60, (S)-2-(3-aminopiperidin-1-yl)-4-((4-phenyl-1H-indazol-6-yl)amino)pyrimidine-5-carboxamide] | 10 | 9.9 | – | – | –
CN(C)C(=O)c1cc(Nc2nc(N3CCC[C@H](N)C3)ncc2C(N)=O)cc(C(C)(C)C)c1 [Example 27, (S)-2-(3-aminopiperidin-1-yl)-4-((3-(tert-butyl)-5-(dimethylcarbamoyl)phenyl)amino) pyrimidine-5-carboxamide] | – | – | 0.4 | 12.5 | –
CC1(C)COCCN1C(=O)c1cc(Nc2nc(N3CCC[C@H](N)C3)ncc2C(N)=O)cc(C(F)(F)F)c1 [Example 32, (S)-2-(3-aminopiperidin-1-yl)-4-((3-(3,3-dimethylmorpholine-4-carbonyl)-5-(trifluoromethyl)phenyl)amino)pyrimidine-5-carboxamide] | – | 11.2 | – | – | 2.1
CC(C)(C)c1cc(Nc2nc(N3CCC[C@H](N)C3)ncc2C(N)=O)cc(C(=O)N2CCCC2)c1 [Example 28, (S)-2-(3-aminopiperidin-1-yl)-4-((3-(tert-butyl)-5-(pyrrolidine-1-carbonyl)phenyl)amino)pyrimidine-5-carboxamide] | – | 11.8 | – | – | 0.5
CN(C)S(=O)(=O)c1cc(Nc2nc(N3CCC[C@H](N)C3)ncc2C(N)=O)cc(C(C)(C)C)c1 [Example 105, (S)-2-(3-aminopiperidin-1-yl)-4-((3-(tert-butyl)-5-(N,N-dimethylsulfamoyl)phenyl)amino) pyrimidine-5-carboxamide] | – | – | 1.3 | 12.9 | –
Cc1ccc(Nc2nc(N3CCC[C@H](N)C3)ncc2C(N)=O)cc1S(=O)(=O)N1CCCCC1 [Example 6, (S)-2-(3-aminopiperidin-1-yl)-4-((4-methyl-3-(piperidin-1-ylsulfonyl)phenyl)amino) pyrimidine-5-carboxamide] | – | – | 3.3 | 9.9 | –
CC(C)(C)c1cc(Nc2nc(N3CCC[C@H](N)C3)ncc2C(N)=O)cc(S(=O)(=O)N2CCCC2)c1 [Example 103, (S)-2-(3-aminopiperidin-1-yl)-4-((3-(tert-butyl)-5-(pyrrolidin-1-ylsulfonyl)phenyl)amino)pyrimidine-5-carboxamide] | – | 12.2 | – | – | 0.7
CS(=O)(=O)c1cc(Nc2nc(N3CCC[C@H](N)C3)ncc2C(N)=O)cc(S(C)(=O)=O)c1.Cl [Example 9, (S)-2-(3-aminopiperidin-1-yl)-4-((3,5-bis(methylsulfonyl)phenyl)amino)pyrimidine-5-carboxamide hydrochloride] | – | 10.1 | 0.2 | – | –
CC1(C)COCCN1C(=O)c1cccc(Nc2nc(N3CCC[C@H](N)C3)ncc2C(N)=O)c1 [Example 30, (S)-2-(3-aminopiperidin-1-yl)-4-((3-(3,3-dimethylmorpholine-4-carbonyl)phenyl)amino) pyrimidine-5-carboxamide] | – | – | 2.0 | 9.5 | –
COC(=O)c1cc(Nc2nc(N3CCC[C@H](N)C3)ncc2C(N)=O)cc(C(C)(C)C#N)c1 [Example 45, Methyl (S)-3-((2-(3-aminopiperidin-1-yl)-5-carbamoylpyrimidin-4-yl)amino)-5-(2-cyanopropan-2-yl)benzoate] | – | 12.6 | – | – | 4.6
CNS(=O)(=O)c1cc(Nc2nc(Cl)ncc2C(N)=O)cc(C(F)(F)F)c1 [Example 108, 2-chloro-4-((3-(N-methylsulfamoyl)-5-(trifluoromethyl)phenyl)amino)pyrimidine-5-carboxamide] | – | 10.7 | – | – | 0.3
